Values joined by “and” are separate entries in the source; they are usually repeats but may differ in a detail not shown here. Identical values can stand only once. Values belong to the molecule of their own block, whether it stands above or below them.
Experiments:
Design in all cases: species or system human
total AKT = test: NanoBiT cell-based immunoassay, total AKT in MCF-7 cells; conditions: for total level of AKT protein: MCF-7 cells, insulin 1 µM 10 min, LY294002 20 µM 1 h
Protocol: (§1) Prior to NanoBiT Cell-Based Immunoassay, 50,000 cells were seeded in 160 µl of complete growth media per well of a 96-well plate and incubated overnight. The cells were checked under microscope and it was determined that 50,000 cells per well in 96-well plate is under 90% confluency for all cells tested. If necessary, the cell culture media were replaced with serum-free media after the cells were stably adherent on the plate and incubated overnight. To treat cells with activators or inhibitors, medium was changed to 30 µl of medium containing inhibitors. If activation of a specific pathway is needed, the cells were stimulated with 10 µl of medium containing activators. To lyse the cells, 10 µl of lysis buffer containing 0.1% digitonin diluted in 1X immunoassay buffer with protease and phosphatase inhibitors was added and the plates were mixed vigorously for 20 min. Then, 50 µl of an antibody mix containing two primary antibodies against the target protein and NanoBiT detecting antibodies (0.3 µl each per well), diluted in 1X immunoassay buffer was added to the lysates. The plates were incubated at 23 °C for 90 min, followed by the addition of 25 µl of Nano-Glo® reagent consisting of Nano-Glo® Luciferase Assay Substrate mixed with 1X immunoassay buffer. Luminescence was measured using a plate-reading luminometer.
(§2) Single dose or dose response inhibitor treatments were performed prior to activation of the pathways as follows. For IκBα, the cells were treated in 30 µl medium with IKK16 or MG132 for 60 min before the addition of 10 µl of DMEM containing appropriate concentration of TNFα. To measure phosphorylation of AKT or STAT3, the corresponding NanoBiT immunoassays were developed with MCF-7 or A431 cells, respectively, according the same scheme used to develop the IκBα assay using the primary antibodies for AKT and STAT3 described in the reagents section. For the AKT assay, MCF-7 cells were incubated overnight in phenol-red free DMEM medium (Gibco #21063-029) without serum. Treatment with LY294002 was performed in 30 µl medium and cells were incubated for 60 min before the addition of 1 µM Insulin. To measure STAT3 phosphorylation, A431 cells were incubated overnight in DMEM medium without serum. […] After addition of the stimulators, the cells were incubated for additional times as follows. IκBα phosphorylation and degradation analyses required both time courses and single time points as described in figures. […] The NanoBiT immunoassay protocol was followed as described above.
(§3) All 96-well assay plates were read using a GloMax® 96 Microplate Luminometer from Promega. The instrument was set to 0.5 s integration time. In order to obtain net change of signal, the reagent background values (signal from the well containing all reagent except primary antibodies) were subtracted from the sample values. To plot and analyze the data, Microsoft Excel and GraphPad Prism® Software were used. IC50 values were determined by using a nonlinear regression fit to a sigmoidal dose response (variable slope).

AKT Phospho-Ser473 = test: NanoBiT p-AKT cell-based immunoassay in MCF-7 cells; conditions: for P-AKT (% compared to no LY294002) / P-AKT, Raw data / P-AKT, Subtract reagent background: single replicates
Protocol: as §1, §2, §3

total STAT3 = test: NanoBiT cell-based immunoassay, total STAT3 in A431 cells; conditions: substance alone
Protocol: as §1, with “The cells were checked under microscope and it was determined that 50,000 cells per well in 96-well plate is under 90% confluency for all cells tested.” left out
Single dose or dose response inhibitor treatments were performed prior to activation of the pathways as follows. For IκBα, the cells were treated in 30 µl medium with IKK16 or MG132 for 60 min before the addition of 10 µl of DMEM containing appropriate concentration of TNFα. To measure phosphorylation of AKT or STAT3, the corresponding NanoBiT immunoassays were developed with MCF-7 or A431 cells, respectively, according the same scheme used to develop the IκBα assay using the primary antibodies for AKT and STAT3 described in the reagents section. […] Treatment with LY294002 was performed in 30 µl medium and cells were incubated for 60 min before the addition of 1 µM Insulin. […]
All 96-well assay plates were read using a GloMax® 96 Microplate Luminometer from Promega. […] IC50 values were determined by using a nonlinear regression fit to a sigmoidal dose response (variable slope).

STAT3 Phospho-Tyr705 = test: NanoBiT pSTAT3 cell-based immunoassay in A431 cells; conditions: substance alone
Protocol: as §1, with “The cells were checked under microscope and it was determined that 50,000 cells per well in 96-well plate is under 90% confluency for all cells tested.” left out
as §2, with “For the AKT assay, MCF-7 cells were incubated overnight in phenol-red free DMEM medium (Gibco #21063-029) without serum.” left out
as §3

[1] = LY294002 0.00190735 uM, Insulin 1 uM
[2] = LY294002 0.00762939 uM, Insulin 1 uM
[3] = LY294002 0.0305176 uM, Insulin 1 uM
[4] = LY294002 0.12207 uM, Insulin 1 uM
[5] = LY294002 0.488281 uM, Insulin 1 uM
[6] = LY294002 1.95312 uM, Insulin 1 uM
[7] = LY294002 7.8125 uM, Insulin 1 uM
[8] = LY294002 31.25 uM, Insulin 1 uM
[9] = background subtracted, average of replicates
[10] = substance alone, background subtracted, average of replicates
[11] = substance alone, single replicates

IC50 (AKT Phospho-Ser473; Homo sapiens, MCF7, MCF-7 cells, pretreated 1 h, insulin 1 µM 10 min, read-out: IC50, inhibition of AKT phosphorylation after insulin treatment): 8.89 µM
Molecule: O=c1cc(N2CCOCC2)oc2c(-c3ccccc3)cccc12 [LY294002, 2-(4-morpholinyl)-8-phenyl-4H-1-benzopyran-4-one]
total level of AKT protein (total AKT): stayed constant
P-AKT (% compared to no LY294002), Average (AKT Phospho-Ser473; LY294002 0.00190735 uM, Insulin 1 uM, average of replicates): 98.2%
P-AKT (% compared to no LY294002) (AKT Phospho-Ser473; [1]): 99.8% and 97.4% and 97.5%
P-AKT, Raw data (AKT Phospho-Ser473; [1]): 2596000 and 2655000 and 2614000
P-AKT, Subtract reagent background (AKT Phospho-Ser473; [1]): 2495800 and 2454800 and 2436800
P-AKT (% compared to no LY294002), Average (AKT Phospho-Ser473; LY294002 0.00762939 uM, Insulin 1 uM, average of replicates): 100.2%
P-AKT (% compared to no LY294002) (AKT Phospho-Ser473; [2]): 101.9% and 99.8% and 98.9%
P-AKT, Raw data (AKT Phospho-Ser473; [2]): 2632000 and 2707000 and 2673000
P-AKT, Subtract reagent background (AKT Phospho-Ser473; [2]): 2548800 and 2514800 and 2473800
P-AKT (% compared to no LY294002), Average (AKT Phospho-Ser473; LY294002 0.0305176 uM, Insulin 1 uM, average of replicates): 99.6%
P-AKT (% compared to no LY294002) (AKT Phospho-Ser473; [3]): 100.5% and 98.7% and 99.6%
P-AKT, Raw data (AKT Phospho-Ser473; [3]): 2646000 and 2668000 and 2645000
P-AKT, Subtract reagent background (AKT Phospho-Ser473; [3]): 2511750 and 2488750 and 2489750
P-AKT (% compared to no LY294002), Average (AKT Phospho-Ser473; LY294002 0.12207 uM, Insulin 1 uM, average of replicates): 97.0%
P-AKT (% compared to no LY294002) (AKT Phospho-Ser473; [4]): 98.2% and 96.0% and 96.8%
P-AKT, Raw data (AKT Phospho-Ser473; [4]): 2577000 and 2614000 and 2578000
P-AKT, Subtract reagent background (AKT Phospho-Ser473; [4]): 2456500 and 2420500 and 2419500
P-AKT (% compared to no LY294002), Average (AKT Phospho-Ser473; LY294002 0.488281 uM, Insulin 1 uM, average of replicates): 97.0%
P-AKT (% compared to no LY294002) (AKT Phospho-Ser473; [5]): 100.1% and 96.2% and 94.5%
P-AKT, Raw data (AKT Phospho-Ser473; [5]): 2521000 and 2661000 and 2582000
P-AKT, Subtract reagent background (AKT Phospho-Ser473; [5]): 2503600 and 2424600 and 2363600
P-AKT (% compared to no LY294002), Average (AKT Phospho-Ser473; LY294002 1.95312 uM, Insulin 1 uM, average of replicates): 89.9%
P-AKT (% compared to no LY294002) (AKT Phospho-Ser473; [6]): 90.1% and 89.4%
P-AKT, Raw data (AKT Phospho-Ser473; [6]): 2390000 and 2409000 and 2425000
P-AKT, Subtract reagent background (AKT Phospho-Ser473; [6]): 2253650 and 2269650 and 2234650
P-AKT (% compared to no LY294002), Average (AKT Phospho-Ser473; LY294002 7.8125 uM, Insulin 1 uM, average of replicates): 57.7%
P-AKT (% compared to no LY294002) (AKT Phospho-Ser473; [7]): 58.2% and 58.0% and 57.0%
P-AKT, Raw data (AKT Phospho-Ser473; [7]): 1581000 and 1612000 and 1617000
P-AKT, Subtract reagent background (AKT Phospho-Ser473; [7]): 1455800 and 1460800 and 1424800
P-AKT (% compared to no LY294002), Average (AKT Phospho-Ser473; LY294002 31.25 uM, Insulin 1 uM, average of replicates): 11.5%
P-AKT (% compared to no LY294002) (AKT Phospho-Ser473; [8]): 11.5% and 11.7% and 11.4%
P-AKT, Raw data (AKT Phospho-Ser473; [8]): 439900 and 442300 and 448200
P-AKT, Subtract reagent background (AKT Phospho-Ser473; [8]): 288200 and 294100 and 285800
P-AKT (% compared to no LY294002), Average (AKT Phospho-Ser473; LY294002 500 uM, Insulin 1 uM, average of replicates): 1.5%
P-AKT (% compared to no LY294002) (AKT Phospho-Ser473; LY294002 500 uM, Insulin 1 uM): 1.5% and 1.4% and 1.6%
P-AKT, Raw data (AKT Phospho-Ser473; LY294002 500 uM, Insulin 1 uM): 166500 and 165600 and 161400
P-AKT, Subtract reagent background (AKT Phospho-Ser473; LY294002 500 uM, Insulin 1 uM): 38600 and 34400 and 39500
P-AKT (% compared to no LY294002), Average (AKT Phospho-Ser473; LY294002 […], Insulin 1 uM, average of replicates): 1.8%
insulin-induced increase in AKT phosphorylation (AKT Phospho-Ser473; MCF-7 cells, 20 µM 1 h pretreatment, insulin 1 µM 10 min): suppressed

Molecule: IL-6
Total STAT3, Average (total STAT3; [9]): 1196983
Total Stat3, Raw data (total STAT3; single replicates): 1090000 and 1448000
Total Stat3, Subtract reagent background (total STAT3; single replicates): 1345317 and 987317
P-STAT3, Average (STAT3 Phospho-Tyr705; [9]): 418850
P-STAT3 Raw data (STAT3 Phospho-Tyr705; single replicates): 458600 and 528900 and 577100
P-STAT3 Subtract reagent background (STAT3 Phospho-Tyr705; single replicates): 355917 and 426217 and 474417

Molecule: insulin: Insulin (#I-0516) from Sigma-Aldrich, AKT pathway stimulator
total level of AKT protein (total AKT): stayed constant
Total AKT, Average (total AKT; [10]): 108225
Total AKT, Raw data (total AKT; [11]): 265700 and 270200 and 257000 and 278000
Total AKT, Subtract reagent background (total AKT; [11]): 121700 and 104800 and 109800 and 96600
AKT phosphorylation over the level in non-treated cells (AKT Phospho-Ser473; MCF-7 cells, insulin 1 µM 10 min): more than 20 fold
P-AKT, Average (AKT Phospho-Ser473; [10]): 2201625
P-AKT, Raw data (AKT Phospho-Ser473; substance alone): 2263000 and 2421000 and 2357000 and 2406000
P-AKT, Subtract reagent background (AKT Phospho-Ser473; substance alone): 2102700 and 2260800 and 2195400 and 2247600
